Test results as given in US10227331B2 (priority 2015, dated 2019).

Experiments:
IMP-1 = IMP-1 (Serratia marcescens, UniProt P52699); test: biochemical; assay type: biochemical; settings: CCF2-FA substrate, 2 hours at 25° C; read-out: IMP-1 IC50
Method in brief: (§1)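 Fluorescence assay of metallo-β-lactamase activity using CCF2-FA, a cephalosporin-linked 7-hydroxycoumarin–fluorescein substrate. Inhibitor, enzyme and substrate were incubated together for 2 hours at 25° C. IC50 came from a 4-parameter fit of inhibition versus inhibitor concentration.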

NDM-1 = NDM-1 (Klebsiella pneumoniae, UniProt C7C422); test: biochemical; assay type: biochemical; settings: CCF2-FA substrate, 2 hours at 25° C; read-out: NDM-1 IC50
Method in brief: as §1

VIM-1 = VIM-1 (Pseudomonas aeruginosa (strain ATCC 15692 / DSM 22644 / CIP 104116 / JCM 14847 / LMG 12228 / 1C / PRS 101 / PAO1), UniProt A0A0F7KYQ8); test: biochemical; settings: CCF2-FA substrate, 2 hours at 25° C
Method in brief: as §1

[1] = system: Escherichia coli expressing NDM-1 (CLB30005, CLB30016); assay type: cell-based; settings: NDM-1 (CLB30016), with imipenem 1 μg/ml, 95% inhibition of bacterial growth
Method in brief: (§2)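 Clinical strains grown overnight on blood agar, then diluted 1:100 in 1.1× CAMHB and exposed to test compound with imipenem at 1 μg/ml. Incubation was 22–24 h at 35° C; growth was read by absorbance to find the compound concentration restoring imipenem susceptibility.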

[2] = system: Klebsiella pneumoniae expressing VIM-1 (IHMA599644); assay type: cell-based; settings: VIM-1 (IHMA599644), with imipenem 1 μg/ml, 95% inhibition of bacterial growth
Method in brief: as §2

[3] = system: Serratia marcescens expressing IMP-1 (CL5741); assay type: cell-based; settings: IMP-1 (CL5741), with imipenem 1 μg/ml, 95% inhibition of bacterial growth
Method in brief: as §2

[4] = system: P. aeruginosa expressing IMP-1, efflux+ (MB9798); assay type: cell-based, Pseudomonas aeruginosa; settings: for P. aeruginosa expressing IMP-1, efflux+ (MB9798) MITC95: imipenem at 2 μg/mL, in the presence of a class A, C, D serine β-lactamase inhibitor closely related to relebactam; for Efflux ratio: ratio MITC95 PA_9798/MITC95 PA_9799
Source text: (§3) The strain background is Pseudomonas aeruginosa PAO1.

[5] = system: P. aeruginosa expressing IMP-1, efflux− (MB9799); test: Efflux: concentration of MBL inhibitor which restores susceptibility to imipenem; assay type: cell-based, Pseudomonas aeruginosa; settings: imipenem at 2 μg/mL, in the presence of a class A, C, D serine β-lactamase inhibitor closely related to relebactam
Source text: as §3

Sequence of NDM-1 (C7C422 whole entry, looked up, species assumed): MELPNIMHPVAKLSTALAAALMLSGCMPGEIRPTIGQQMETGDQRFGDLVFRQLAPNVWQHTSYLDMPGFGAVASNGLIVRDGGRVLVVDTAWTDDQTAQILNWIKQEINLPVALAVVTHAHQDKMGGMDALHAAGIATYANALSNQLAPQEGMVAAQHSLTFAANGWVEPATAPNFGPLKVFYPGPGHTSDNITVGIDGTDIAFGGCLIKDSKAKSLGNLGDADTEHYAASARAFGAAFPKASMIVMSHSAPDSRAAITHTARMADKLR
Sequence of IMP-1 (P52699 whole entry, looked up, species assumed): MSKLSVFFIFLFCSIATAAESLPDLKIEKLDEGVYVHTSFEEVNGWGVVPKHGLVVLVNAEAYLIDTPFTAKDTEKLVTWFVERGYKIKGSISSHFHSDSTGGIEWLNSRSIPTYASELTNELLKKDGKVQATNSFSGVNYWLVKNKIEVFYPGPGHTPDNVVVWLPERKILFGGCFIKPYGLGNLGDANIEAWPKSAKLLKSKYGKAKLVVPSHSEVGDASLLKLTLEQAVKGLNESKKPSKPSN

| Structure (SMILES) | IC50 (IMP-1) [pM] | IC50 (NDM-1) [pM] | IC50 (VIM-1) [pM] | Escherichia coli MITC95 [1] [µM] | Klebsiella pneumoniae MITC95 [2] [µM] | Serratia marcescens MITC95 [3] [µM] | P. aeruginosa expressing IMP-1, efflux+ (MB9798) MITC95 [4] [µM] | Efflux ratio [4] | P. aeruginosa expressing IMP-1, efflux− (MB9799) MITC95 [5] [µM] |
| --- | --- | --- | --- | --- | --- | --- | --- | --- | --- |
| C[C@@H](CN)S(=O)(=O)c1ccc(-c2cccc3sc(N)nc23)c(-c2nn[nH]n2)c1S(N)(=O)=O [Example 286, 3-(2-aminobenzo[d]thiazol-4-yl)-6-((S)-1-aminopropan-2-ylsulfonyl)-2-(2H-tetrazol-5-yl)benzenesulfonamide] | 323 | 93.4 | 265 | 0.7813 | 1.563 | 0.7813 | 1.563 | 2.00 | 0.7813 |
| Nc1c(-c2ccc(S(=O)(=O)C3CNC3)c(S(N)(=O)=O)c2-c2nn[nH]n2)cccc1S(N)(=O)=O [Example 287, 2′-amino-4-(azetidin-3-ylsulfonyl)-2-(2H-tetrazol-5-yl)biphenyl-3,3′-disulfonamide] | 2920 | 386 | 607 | 3.125 | 3.125 | 3.125 | 6.25 | 2.00 | 3.125 |
| NCCNC(=O)c1cccc(-c2ccc(S(=O)(=O)C3CNC3)c(S(N)(=O)=O)c2-c2nn[nH]n2)c1N [Example 288, 2-amino-N-(2-aminoethyl)-4′-(azetidin-3-ylsulfonyl)-5′-sulfamoyl-6′-(2H-tetrazol-5-yl)biphenyl-3-carboxamide] | 9830 | 1670 | 861 | 3.125 | 1.563 | 3.125 | 3.125 | 4.00 | 0.7813 |
| CCCn1c(N)nc2c(-c3ccc(S(=O)(=O)C4CNC4)c(S(N)(=O)=O)c3-c3nn[nH]n3)cccc21 [Example 289, 3-(2-amino-1-propyl-1H-benzo[d]imidazol-4-yl)-6-(azetidin-3-ylsulfonyl)-2-(2H-tetrazol-5-yl)benzenesulfonamide] | 299 | 120 | 407 | 0.3906 | 3.125 | 1.563 | 12.5 | 8.00 | 1.563 |
| NS(=O)(=O)c1c(S(=O)(=O)[C@H]2CCNC2)ccc(-c2cccc3nc(C(=O)O)[nH]c23)c1-c1nn[nH]n1 [Example 290, 7-(4-((S)-pyrrolidin-3-ylsulfonyl)-3-sulfamoyl-2-(2H-tetrazol-5-yl)phenyl)-1H-benzo[d]imidazole-2-carboxylic Acid] | 2960 | 472 | 500 | 3.125 | 3.125 | 3.125 | 6.25 | 4.00 | 1.563 |
| Nc1nc2c(-c3ccc(S(=O)(=O)[C@H]4CN[C@H](CO)C4)c(S(N)(=O)=O)c3-c3nn[nH]n3)cccc2[nH]1 [Example 291, 3-(2-amino-1H-benzo[d]imidazol-4-yl)-6-((3R,5S)-5-(hydroxymethyl)pyrrolidin-3-ylsulfonyl)-2-(2H-tetrazol-5-yl)benzenesulfonamide] | 959 | 195 | 540 | 0.7813 | 1.563 | 0.7813 | 0.7813 | 1.00 | 0.7813 |
| Nc1nc2c(-c3ccc(S(=O)(=O)[C@H]4CN[C@H](CO)C4)c(S(N)(=O)=O)c3-c3nn[nH]n3)cccc2s1 [Example 292, 3-(2-aminobenzo[d]thiazol-4-yl)-6-((3R,5S)-5-(hydroxymethyl)pyrrolidin-3-ylsulfonyl)-2-(2H-tetrazol-5-yl)benzenesulfonamide] | 270 | 161 | 332 | 3.125 | 3.125 | 1.563 | 1.563 | 1.00 | 1.563 |
| NC[C@H](N)CS(=O)(=O)c1ccc(-c2cccc3[nH]c(N)nc23)c(-c2nnn[nH]2)c1S(N)(=O)=O [Example 293, 3-(2-amino-1H-benzo[d]imidazol-4-yl)-6-((S)-2,3-diaminopropylsulfonyl)-2-(1H-tetrazol-5-yl)benzenesulfonamide] | 1310 | 157 | 465 | 0.3906 | 1.563 | 1.563 | 0.7813 | 1.00 | 0.7813 |
| C[C@H](N)CS(=O)(=O)c1ccc(-c2cccc3[nH]c(C(=O)O)nc23)c(-c2nn[nH]n2)c1S(N)(=O)=O [Example 294, 4-(4-((S)-2-aminopropylsulfonyl)-3-sulfamoyl-2-(2H-tetrazol-5-yl)phenyl)-1H-benzo[d]imidazole-2-carboxylic Acid] | 350 | 82.7 | 184 | 1.563 | 3.125 | 3.125 | 1.563 | 1.00 | 1.563 |
| N#Cc1ccc(-c2ccc(S(=O)(=O)CCN)c(S(N)(=O)=O)c2-c2nnn[nH]2)c2[nH]c(N)nc12 [Example 295, 3-(2-amino-4-cyano-1H-benzo[d]imidazol-7-yl)-6-((2-aminoethyl)sulfonyl)-2-(1H-tetrazol-5-yl)benzenesulfonamide] | 1220 | 116 | 105 | 1.563 | 3.125 | 3.125 | 1.563 | 1.00 | 1.563 |
| NS(=O)(=O)c1c(S(=O)(=O)C2CNC2)ccc(-c2cccc3cn[nH]c23)c1-c1nnn[nH]1 [Example 297, 6-(azetidin-3-ylsulfonyl)-3-(1H-indazol-7-yl)-2-(1H-tetrazol-5-yl)benzenesulfonamide] | 596 | 217 | 282 | 1.563 | 3.125 | 1.563 | 1.563 | 2.00 | 0.7813 |
| NCCS(=O)(=O)c1ccc(-c2cccc3cn[nH]c23)c(-c2nnn[nH]2)c1S(N)(=O)=O [Example 298, 6-((2-aminoethyl)sulfonyl)-3-(1H-indazol-7-yl)-2-(1H-tetrazol-5-yl) benzenesulfonamide] | 300 | 425 | 257 | 0.7813 | 1.563 | 1.563 | 1.563 | 2.00 | 0.7813 |
| NS(=O)(=O)c1c(S(=O)(=O)C2CNC2)ccc(-c2cccc3[nH]c(=O)[nH]c23)c1-c1nnn[nH]1 [Example 299, 6-(azetidin-3-ylsulfonyl)-3-(2-oxo-2,3-dihydro-1H-benzo[d]imidazol-4-yl)-2-(1H-tetrazol-5-yl) benzenesulfonamide] | 1450 | 188 | 302 | 3.125 | 6.25 | 3.125 | 3.125 | 1.00 | 3.125 |
